Assay results from patent EP1891955A1, “Use of 1,2,3-substituted indolizine derivatives, inhibitors of FGFs, for the preparation of a medicament intended for the treatment of degenerative joint diseases” (Sanofi-Aventis, priority 2006, dated 2008).
Marks after values point to notes of the source that are not given here.

Test system: STR/1N mice
Assay: Knee joint damage in STR/1N mice developing osteoarthritis spontaneously (semi-quantitative histopathological score)
Assay type: in vivo
Conditions: male STR/1N mice, 6-week treatment
Description: The effect of an FGF-antaqonist on the degree of knee joint damage in STR/1N mice, which develop osteoarthritis spontaneously
The experiment was performed according to the regulations of the German Animal Protection Law. Fifty 9-week old male STR/1N mice (strain bred and maintained at sanofi-aventis, Dept. of Laboratory Animal Safety and Welfare, D-65926 Frankfurt/Main, Germany) were randomized to 2 experimental groups (n=25/group). The animals were housed individually in standard mouse cages (room temperature 20 - 22°C; relative humidity 55-75%; 12 hours light/dark cycle) with free access to the powdered mouse standard food (Sniff R/M-H, Soest, Germany) and tap water. To achieve sustained drug exposure, the sodium 2-amino-5-[(1-methoxy-2-methylindolizin-3-yl)carbonyl]benzoic acid monohydrate was blended with the standard food at concentrations of 300 ppm (0.3 g/kg food) and administered to one experimental group of 25 mice ad libitum. The control group of 25 mice received unsupplemented standard food. Following the 6-week treatment period the animals were sacrificed by CO2 inhalation, their left knee joints were removed and decalcified for 3 days with formic acid (decalcifier, Shandon, Frankfurt/M., Germany), fixed in formalin and embedded in paraffin. Four sequential coronal sections of the complete knee joints (7 µm, 0.1 mm apart), stained with Hematoxyline-Eosine and Saffranin-O were evaluated by a blinded observer for the degree of histopathological joint alterations by using a semi-quantitative score as described in Table 1. Table 1: Semiquantitative Histopathological Score of Osteoarthritic Joint Damage in STR/1N Mice
The osteoarthritis joint damage was assessed by a semi-quantitative histopathological score. The STR/1N mice developed moderate osteoarthritis in the medial tibial plateau of the knee joint.

With `COc1c(C)c(C(=O)c2ccc(N)c(C(=O)O)c2)n2ccccc12.O.[Na]` [sodium 2-amino-5-[(1-methoxy-2-methylindolizin-3-yl)carbonyl]benzoic acid monohydrate] the “Histopathological Score Mean (SEM)” value (300 ppm (0.3 g/kg food) in food ad libitum, left knee joint, maximal total joint score = 128, p = 0.0118 Mann Whitney Test vs control 34.3 (3.8)) was 23.5 (3.7)*, the tolerability (300 ppm in food) was “well tolerated” and the “reduction of the degree of histopathological joint damage” value (300 ppm in food, versus non-treated control) was 32%.
